Measured values taken from patent US9932309B2, “2-oxo-3,4-dihydropyridine-5-carboxylates and their use” (UNIVERSITE DE LILLE 2 DROIT ET SANTE, priority 2014, dated 2018).

How the values were obtained:
[1] = biological target: T1, hTGR5 (Homo sapiens, UniProt Q8TDU6); test: TGR5/CRE Luciferase Assay (hTGR5); assay type: cell-based; settings: for EC50: HEK 293 cells co-transfected with pCMV tag4b-TGR5h and pCRE TA-Luciferase, overnight incubation; for hTGR5 % trans: percentage of the 10 μM LCA value, HEK 293 cells transfected with hTGR5
T1 construct: expressed in transfected cells; host or cells: HEK293 cells, transiently co-transfected with the pCRE TA-Luciferase reporter
T1 sequence (Q8TDU6 1-330): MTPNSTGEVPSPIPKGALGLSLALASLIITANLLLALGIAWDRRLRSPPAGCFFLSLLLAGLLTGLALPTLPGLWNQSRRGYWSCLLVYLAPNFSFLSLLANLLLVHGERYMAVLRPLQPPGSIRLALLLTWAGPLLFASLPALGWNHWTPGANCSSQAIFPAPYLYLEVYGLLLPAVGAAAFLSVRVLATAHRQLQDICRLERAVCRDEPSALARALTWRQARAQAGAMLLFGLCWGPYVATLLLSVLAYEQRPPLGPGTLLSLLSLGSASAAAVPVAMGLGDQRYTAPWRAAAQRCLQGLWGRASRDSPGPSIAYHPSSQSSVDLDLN
Description: (§1) TGR5/CRE Luciferase Assay
(§2) In the following Tables TGR5 activation by compounds of the invention and subsequent increase in intracellular cAMP were evaluated using a luciferase reporter gene assay. Human embryonic kidney (HEK) 293 cells were transiently co-transfected with pCMV tag4b-TGR5 h (to follow hTGR5 activation) or pCMV AC6-TGR5m (to follow mTGR5 activation) expression plasmids and the pCRE TA-Luciferase reporter plasmid using the JET PEI reagent (Polyplus transfection). Transfected cells were seeded in 96-well plates and incubated overnight with the test compounds at increasing concentrations tested in duplicate. Lithocolic acid (LCA) at 10 μM was used as a positive reference compound. The cAMP-dependent luciferase expression was followed using the BrightGlo reagent according to the manufacturer (Promega) instructions. Luminescence was read with a Mithras plate reader (Berthold) or a Victor3™ V1420 (Perkin Elmer). […] Concentration-response curves were fitted by a nonlinear regression analysis to a 4 parameter logistic equation

[2] = biological target: T2, mTGR5 (Mus musculus, UniProt Q80SS6); test: TGR5/CRE Luciferase Assay (mTGR5); assay type: cell-based; settings: for EC50: HEK 293 cells co-transfected with pCMV AC6-TGR5m and pCRE TA-Luciferase, overnight incubation; for mTGR5 % trans: percentage of the 10 μM LCA value, HEK 293 cells transfected with mTGR5
T2 construct: expressed in transfected cells; host or cells: HEK293 cells, transiently co-transfected with the pCRE TA-Luciferase reporter
T2 sequence (Q80SS6 1-329): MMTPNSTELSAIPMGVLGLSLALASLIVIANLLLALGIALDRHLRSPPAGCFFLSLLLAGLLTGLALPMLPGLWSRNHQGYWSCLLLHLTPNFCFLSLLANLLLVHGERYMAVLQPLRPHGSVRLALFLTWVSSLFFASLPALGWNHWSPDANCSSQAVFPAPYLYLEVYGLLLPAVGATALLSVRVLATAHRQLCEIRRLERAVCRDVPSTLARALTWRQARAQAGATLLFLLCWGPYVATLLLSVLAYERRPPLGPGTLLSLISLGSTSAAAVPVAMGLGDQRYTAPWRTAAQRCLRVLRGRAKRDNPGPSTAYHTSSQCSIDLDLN
Description: as §1, §2

SMILES | EC50 [1] [nM] | hTGR5 % trans [1] [%] | EC50 [2] [nM] | mTGR5 % trans [2] [%]
CC1=C(C(=O)OCc2ccccc2)C(c2ccc(Cl)cc2)CC(=O)N1Cc1ccccc1 (centres unmarked) [Compound 41, Benzyl 1-benzyl-4-(4-chlorophenyl)-6-methyl-2-oxo-3,4-dihydropyridine-5-carboxylate] | 1300 | 55 | 1200 | 55
COCCN1C(=O)CC(c2ccc(Cl)cc2)C(C(=O)NCc2ccccc2)=C1C (centres unmarked) [Example 75, N-benzyl-4-(4-chlorophenyl)-1-(2-methoxyethyl)-6-methyl-2-oxo-3,4-dihydropyridine-5-carboxamide] | 7800 | 34 | 18300 | 25
COc1cccc(C2CC(=O)NC(C)=C2C(=O)OCc2ccccc2)c1 (centres unmarked) [Compound 5, 4-(3-Methoxy-phenyl)-2-methyl-6-oxo-1,4,5,6-tetrahydro-pyridine-3-carboxylic acid benzyl ester] | 10600 | 31 | 11100 | 34
COCCN1C(=O)CC(c2ccc(Cl)cc2)C(C(=O)OCCc2ccccc2)=C1C (centres unmarked) [Example 110, 2-phenylethyl 4-(4-chlorophenyl)-1-(2-methoxyethyl)-6-methyl-2-oxo-3,4-dihydropyridine-5-carboxylate] | 2300 | 50 | 1600 | 42
COCCN1C(=O)CC(c2ccc(Cl)cc2)C(C(=O)OCc2ccc(OCCC[N+](C)(C)C)cc2)=C1C.[I-] (centres unmarked) [Example 117, 3-[4-[[4-(4-chlorophenyl)-1-(2-methoxyethyl)-6-methyl-2-oxo-3,4-dihydropyridine-5-carbonyl]oxymethyl]phenoxy]propyl-trimethyl-ammonium; iodide] | 1600 | 74 | 4200 | 77
CC1=C(C(=O)OCc2ccccc2)C(c2ccc(Cl)cc2)CC(=O)N1CC1C[N+](C)(C)C1.[I-] (centres unmarked) [Compound 48, Benzyl 4-(4-chlorophenyl)-1-[(1,1-dimethylazetidin-1-ium-3-yl)methyl]-6-methyl-2-oxo-3,4-dihydropyridine-5-carboxylate iodide] | 12000 | 13 |  | 0
C#CCN1C(=O)CC(c2ccc(Cl)cc2)C(C(=O)OCc2ccccc2)=C1C (centres unmarked) [Compound 40, Benzyl 4-(4-chlorophenyl)-6-methyl-2-oxo-1-prop-2-ynyl-3,4-dihydropyridine-5-carboxylate] | 900 | 81 | 900 | 76
CC1=C(C(=O)OCc2ccccc2)C(c2ccc(C(F)(F)F)cc2)CC(=O)N1 (centres unmarked) [Compound 9, 2-Methyl-6-oxo-4-(4-trifluoromethyl-phenyl)-1,4,5,6-tetrahydro-pyridine-3-carboxylic acid benzyl ester] | 1500 | 48 | 1400 | 37
CN1C=C(C(=O)NCc2ccccc2)C(c2ccc(Cl)cc2)CC1=O (centres unmarked) [Compound 26, N-benzyl-4-(4-chlorophenyl)-1-methyl-2-oxo-3,4-dihydropyridine-5-carboxamide] | 4600 | 10 | 1800 | 20
CC1=C(C(=O)OCc2ccccc2)C(c2ccc(F)cc2)CC(=O)N1 (centres unmarked) [Compound 13, 4-(4-Fluoro-phenyl)-2-methyl-6-oxo-1,4,5,6-tetrahydro-pyridine-3-carboxylic acid benzyl ester] | 2600 | 40 | 4200 | 37

Stronger by EC50 [1], values ahead:

EC50 [1] [nM] | hTGR5 % trans [1] [%] | EC50 [2] [nM] | mTGR5 % trans [2] [%] | SMILES
700 | 74 | 1500 | 59 | CC1=C(C(=O)OCc2c(F)cccc2F)C(c2ccc(Cl)cc2)CC(=O)N1C (centres unmarked) [Example 82, (2,6-difluorophenyl)methyl 4-(4-chlorophenyl)-1,6-dimethyl-2-oxo-3,4-dihydropyridine-5-carboxylate]
380 | 70 | 930 | 40 | CC1=C(C(=O)OC2CCc3ccccc32)[C@H](c2ccc(Cl)cc2)CC(=O)N1C[C@H]1CCCO1 (mixture of isomers) [Example 137, Indan-1-yl (4S)-4-(4-chlorophenyl)-6-methyl-2-oxo-1-[[(2R)-tetrahydrofuran-2-yl]methyl]-3,4-dihydropyridine-5-carboxylate]
300 | 59 | 400 | 77 | CC1=C(C(=O)OCc2ccccc2)C(c2ccc(Cl)cc2)CC(=O)N1CC1CCC1 (centres unmarked) [Compound 44, Benzyl 4-(4-chlorophenyl)-1-(cyclobutylmethyl)-6-methyl-2-oxo-3,4-dihydropyridine-5-carboxylate]
200 | 75 | 400 | 91 | COCCN1C(=O)CC(c2ccc(Cl)cc2)C(C(=O)OCc2cccc(Cl)c2)=C1C (centres unmarked) [Example 88, (3-chlorophenyl)methyl 4-(4-chlorophenyl)-1-(2-methoxyethyl)-6-methyl-2-oxo-3,4-dihydropyridine-5-carboxylate]
200 | 71 | 200 | 85 | COCCN1C(=O)CC(c2ccc(Cl)cc2)C(C(=O)OCc2ccc(OC)cc2)=C1C (centres unmarked) [Example 104, (4-methoxyphenyl)methyl 4-(4-chlorophenyl)-1-(2-methoxyethyl)-6-methyl-2-oxo-3,4-dihydropyridine-5-carboxylate]
160 | 103 | 100 | 113 | CC1=C(C(=O)OCc2ccc(OCCCS(=O)(=O)O)cc2)[C@H](c2ccc(Cl)nc2)CC(=O)N1C[C@H]1CCCO1.N [Example 166, Ammonium,3-[4-[[(4S)-4-(6-chloro-3-pyridyl)-6-methyl-2-oxo-1-[[(2R)-tetrahydrofuran-2-yl]methyl]-3,4-dihydropyridine-5-carbonyl]oxymethyl]phenoxy]propane-1-sulfonate]
70 | 65 | 80 | 102 | COc1ccccc1COC(=O)C1=C(C)N(CC2CC2)C(=O)CC1c1ccc(Cl)cc1 (centres unmarked) [Compound 70, o-methoxybenzyl 4-(4-chlorophenyl)-1-(cyclopropylmethyl)-6-methyl-2-oxo-3,4-dihydropyridine-5-carboxylate]
20 | 93 | 40 | 111 | COCCOc1ccc(COC(=O)C2=C(C)N(C[C@H]3CCCO3)C(=O)C[C@H]2c2ccc(Cl)cc2)cc1 (racemic) [Example 136, 4-(2-methoxyethoxy)phenyl]methyl (4S)-4-(4-chlorophenyl)-6-methyl-2-oxo-1-[[(2R)-tetrahydrofuran-2-yl]methyl]-3,4-dihydropyridine-5-carboxylate and 4-(2-methoxyethoxy)phenyl]methyl (4R)-4-(4-chlorophenyl)-6-methyl-2-oxo-1-[[(2S)-tetrahydrofuran-2-yl]methyl]-3,4-dihydropyridine-5-carboxylate]
